Results on two compounds are retold here after USRE39030E1 (Eli Lilly and Company, priority 1997, dated 2006).

Each structure is given as a SMILES string. Structures can show the parent of a compound that is named as a salt.

Series [1] can be described thus: interaction of fluoxetine with lactose (reducing sugar) over time. The note with it: room temperature and accelerated stability conditions (heat). The format is physicochemical. An excerpt:
When used in this description, the term “sugar” refers to a sugar other than a reducing sugar. A reducing sugar is a carbohydrate that reduces Fehling's (or Benedict's) or Tollens' reagent. All monosaccharides are reducing sugars as are most disaccharides with the exception of sucrose. One common sugar used frequently as a binding or filling agent is lactose. […] As discussed below, sucrose is a preferred sugar.

The conditions of series [2]: 120 mg dosed biweekly; cited from earlier work.
For series [3] the following is noted: 60 mg once per week vs 20 mg per day; maintenance therapy after eight weeks of daily dosing; cited from earlier work.

In the case of `CNCCC(Oc1ccc(C(F)(F)F)cc1)c1ccccc1` (stereo not drawn) [fluoxetine, N-methyl-3-(p-trifluoromethylphenoxy)-3-phenylpropylamine], the interaction with lactose entry in series [1] was “interacts with lactose both at room temperature and under accelerated stability conditions (heat)”. In addition, in series [2], the “effectiveness for treating recurrent brief depression” value was “ineffective”.
As for `CNCCC(Oc1ccc(C(F)(F)F)cc1)c1ccccc1` (stereo not drawn) [fluoxetine hydrochloride], the “effectiveness during maintenance therapy” value in series [3] is “as effective as 20 mg per day”.
